Type in all cases: in vivo
The subject of assay [1] is black nightshade (Solanum nigrum L.). Briefly: Test Example 1: foliar treatment of black nightshade, visual growth inhibition. The conditions noted are these: foliar treatment at 2.3 to 2.5 leaf stage, 21st day after treatment, read-out: Growth Inhibition Rate of Black nightshade (%) Measured Value. How it is done:
Upland field soil was put into a 1/1,000,000-ha pot, and seeds of black nightshade (Solanum nigrum L.) were sown. When the black nightshade reached the 2.3 to 2.5 leaf stage, prescribed amounts of a water dispersible granules containing flazasulfuron as an active ingredient (trade name: SHIBAGEN DF, manufactured by Ishihara Sangyo Kaisha, Ltd.) and a wettable powder containing pyroxasulfone as an active ingredient were diluted with water (corresponding to 1,000 L/ha) containing 0.05% by volume of an agricultural adjuvant (trade name: KUSARINOH, manufactured by NIHON NOHYAKU Co., Ltd.) and applied for foliar treatment by a small sprayer.
On the 21st day after the treatment, the state of growth of the black nightshade was visually observed and examined, followed by evaluation according to the following evaluation criteria. A growth inhibition rate (%) (measured value) and a growth inhibition rate (%) (calculated value) as calculated according to the foregoing Colby's method are shown in Table 1.
(§1) Growth inhibition rate (%)=weed control rate of from 0% (equivalent to the non-treated plot) to 100% (complete kill)

For assay [2], the system named is crabgrass (Digitaria sanguinalis (L.) Scop.). Briefly: Test Example 2: foliar treatment of crabgrass, visual growth inhibition. The conditions noted are these: foliar treatment at 4.0 to 4.5 leaf stage, 21st day after treatment, read-out: Growth Inhibition Rate of Crabgrass (%) Measured Value. On the procedure: as §1
Upland field soil was put into a 1/1,000,000-ha pot, and seeds of crabgrass (Digitaria sanguinalis (L.) Scop.) were sown. When the crabgrass reached the 4.0 to 4.5 leaf stage, prescribed amounts of SHIBAGEN DF (trade name) and a wettable powder containing pyroxasulfone as an active ingredient were diluted with water (corresponding to 1,000 L/ha) containing 0.05% by volume of KUSARINOH (trade name) and applied for foliar treatment by a small sprayer.
On the 21st day after the treatment, the state of growth of the crabgrass was visually observed and examined.

Assay [3] relates to velvetleaf (Abutilon theophrasti Medic.). Briefly: Test Example 3: soil treatment, velvetleaf, visual growth inhibition. The conditions noted are these: 24 h, soil treatment one day after sowing, 21st day after treatment, read-out: Growth Inhibition Rate of Velvetleaf (%) Measured Value. On the procedure: as §1
Upland field soil was put into a 1/1,000,000-ha pot, and seeds of velvetleaf (Abutilon theophrasti Medic.) were sown. After one day, prescribed amounts of SHIBAGEN DF (trade name) and a wettable powder containing pyroxasulfone as an active ingredient were diluted with water (corresponding to 1,000 L/ha) and applied for soil treatment by a small sprayer.
On the 21st day after the treatment, the state of growth of the velvetleaf was visually observed and examined.

Assay [4] concerns wild oat (Avena fatua L.). The assay can be described thus: Test Example 6: soil treatment, wild oat, visual growth inhibition. The conditions noted are these: 24 h, soil treatment one day after sowing, 28th day after treatment, read-out: Growth Inhibition Rate of Wild oat (%) Measured Value. How it is done: as §1
Upland field soil was put into a 1/300,000-ha pot, and seeds of wild oat (Avena fatua L.) were sown. After one day, prescribed amounts of SHIBAGEN DF (trade name) and a wettable powder containing pyroxasulfone as an active ingredient were diluted with water (corresponding to 1,000 L/ha) and applied for soil treatment by a small sprayer.
On the 28th day after the treatment, the state of growth of the wild oat was visually observed and examined.

In assay [5] the test system is black nightshade (Solanum nigrum L.). Briefly: Test Example 5: soil treatment, black nightshade, visual growth inhibition. The conditions noted are these: 24 h, soil treatment one day after sowing, 14th day after treatment, read-out: Growth Inhibition Rate of Black nightshade (%) Measured Value. How it is done: as §1
Upland field soil was put into a 1/300,000-ha pot, and seeds of black nightshade (Solanum nigrum L.) were sown. After one day, prescribed amounts of SHIBAGEN DF (trade name) and a wettable powder containing pyroxasulfone as an active ingredient were diluted with water (corresponding to 1,000 L/ha) and applied for soil treatment by a small sprayer.
On the 14th day after the treatment, the state of growth of the black nightshade was visually observed and examined.

Assay [6] concerns common lambsquarters (Chenopodium album L.). Briefly: Test Example 4: soil treatment, common lambsquarters, visual growth inhibition. The conditions noted are these: 24 h, soil treatment one day after sowing, 27th day after treatment, read-out: Growth Inhibition Rate of Common lambsquarters (%) Measured Value. On the procedure:
as §1
Upland field soil was put into a 1/1,000,000-ha pot, and seeds of common lambsquarters (Chenopodium album L.) were sown. After one day, prescribed amounts of a water-based suspension containing nicosulfuron as an active ingredient and a wettable powder containing pyroxasulfone as an active ingredient were diluted with water (corresponding to 300 L/ha) and applied for soil treatment by a small sprayer.
On the 27th day after the treatment, the state of growth of the common lambsquarters was visually observed and examined.

Assay [7] concerns velvetleaf (Abutilon theophrasti Medic.). Briefly: Test Example 7: soil treatment, velvetleaf, visual growth inhibition. The conditions noted are these: 24 h, soil treatment one day after sowing, 28th day after treatment, read-out: Growth Inhibition Rate of Velvetleaf (%) Measured Value. How it is done: as §1
Upland field soil was put into a 1/300,000-ha pot, and seeds of velvetleaf (Abutilon theophrasti Medic.) were sown. After one day, prescribed amounts of an oil-based suspension (trade name: ONEHOPE NYUZAI, manufactured by Ishihara Sangyo Kaisha, Ltd.) containing nicosulfuron as an active ingredient and a wettable powder containing pyroxasulfone as an active ingredient were diluted with water (corresponding to 1,000 L/ha) and applied for soil treatment by a small sprayer.
On the 28th day after the treatment, the state of growth of the velvetleaf was visually observed and examined.

On to `COc1cc(OC)nc(NC(=O)NS(=O)(=O)c2ncccc2C(F)(F)F)n1` [flazasulfuron, 1-(4,6-dimethoxypyrimidin-2-yl)-3-(3-trilfuoromethyl-2-pyridylsulfony)urea], for which the inhibition at 12.5 g/ha in assay [1] (dose 12.5 g/ha) was 33%. Moreover, the inhibition at 50 g/ha in assay [2] (dose 50 g/ha) is 70%; in assay [3] (dose 50 g/ha), 94%; in assay [5] it was 60%. Also, the inhibition at 100 g/ha turned out to be 85% in assay [4] (dose 100 g/ha) and 80% in assay [5] (dose 100 g/ha). In addition, in assay [5] (dose 25 g/ha), the inhibition at 25 g/ha was found to be 50%.
As to `COc1cc(OC)nc(NC(=O)NS(=O)(=O)c2ncccc2C(=O)N(C)C)n1` [nicosulfuron, 2-(4,6-dimethoxypyrimidin-2-ylcarbamoylsulfamoyl)-N,N-dimethylnicotinamide], the inhibition at 30 g/ha in assay [6] (dose 30 g/ha) amounted to 35%. For the same compound, the inhibition at 20 g/ha in assay [7] (dose 20 g/ha) stood at 0%. For the same compound, in assay [7], the inhibition at 100 g/ha was 10%.
With `Cn1nc(C(F)(F)F)c(CS(=O)(=O)C2=NOC(C)(C)C2)c1OC(F)F` [pyroxasulfone, 3-[5-(difluoromethoxy)-1-methyl-3-(trifluoromethyl)pyrazol-4-ylmethylsulfonyl]-4,5-dihydro-5,5-dimethyl-1,2-oxazole], the figures for the inhibition at 25 g/ha in assay [1] (dose 25 g/ha) and in assay [2] (dose 25 g/ha) were 20% and 0%, respectively. The inhibition at 125 g/ha in assay [6] (dose 125 g/ha) is 90%. Besides, in assay [2] (dose 200 g/ha), the inhibition at 200 g/ha worked out at 40%. Also, the inhibition at 50 g/ha came out at 40% in assay [7] (dose 50 g/ha) and 20% in assay [5]. For the same compound, the inhibition at 100 g/ha in assay [7] was determined as 70%. Besides, the inhibition at 300 g/ha in assay [7] (dose 300 g/ha) came to 80%; in assay [5] (dose 300 g/ha), 30%. The inhibition at 12.5 g/ha in assay [3] (dose 12.5 g/ha) turned out to be 13%; in assay [4] (dose 12.5 g/ha), 0%. In addition, in assay [5] (dose 150 g/ha), the inhibition at 150 g/ha is 30%.

Source of the values: patent US9370185B2, “Herbicidal composition” (ISHIHARA SANGYO KAISHA, LTD., priority 2011, dated 2016).
